The source of these data is patent US10435408B2, “Azepine derivatives as 5-HT7 receptor modulators” (KOREA INSTITUTE OF SCIENCE AND TECHNOLOGY, priority 2016, dated 2019).

As usually defined, the inhibition is the percentage by which the read-out fell short of the control. One may read the Ki as a measure of affinity in units of concentration, obtained from inhibition or displacement.

This assay addresses Human gene recombinant 5-HT7 receptor (Homo sapiens (Human), UniProt P34969). Nature of the assay: Measurement of binding affinity for serotonin 5-HT7 receptor ([3H]LSD radioligand binding). The settings on record: [3H]LSD 1 nM, 5-HT7 receptor membrane from CHO cells; for inhibition at 10 µM: 10 μM compound; for Ki: nonlinear regression. On the procedure:
Human gene recombinant 5-HT7 receptor expressed in Chinese hamster ovary (CHO) cells was used. [^3H]LSD 1 nM, the 5-HT7 receptor membrane (15 μg/well), each of the samples of Example 1-20 at various concentrations, 10 mM MgCl2, and 50 mM Tris-HCl buffer (pH 7.4) containing 0.1 mM EDTA were added to a vessel until the final volume reached 0.25 ml. The reaction mixture was incubated at 25° C. for 90 min. The incubated reaction mixture was rapidly passed through a Whatman GF/C glass fiber filter, which had been previously soaked with 0.3% polyethyleneimine, using a Brandel-Harvester to quench the reaction and washed with cold 50 mM Tris-HCl buffer. The filter was covered with MeltiLex, sealed in a sample bag, and dried in an oven. The radioactivity retained in the filter was counted using MicroBeta (Wallac). Non-specific binding was determined in the presence of 0.5 μM Mianserin.

Human gene recombinant 5-HT7 receptor, sequence (P34969 whole entry): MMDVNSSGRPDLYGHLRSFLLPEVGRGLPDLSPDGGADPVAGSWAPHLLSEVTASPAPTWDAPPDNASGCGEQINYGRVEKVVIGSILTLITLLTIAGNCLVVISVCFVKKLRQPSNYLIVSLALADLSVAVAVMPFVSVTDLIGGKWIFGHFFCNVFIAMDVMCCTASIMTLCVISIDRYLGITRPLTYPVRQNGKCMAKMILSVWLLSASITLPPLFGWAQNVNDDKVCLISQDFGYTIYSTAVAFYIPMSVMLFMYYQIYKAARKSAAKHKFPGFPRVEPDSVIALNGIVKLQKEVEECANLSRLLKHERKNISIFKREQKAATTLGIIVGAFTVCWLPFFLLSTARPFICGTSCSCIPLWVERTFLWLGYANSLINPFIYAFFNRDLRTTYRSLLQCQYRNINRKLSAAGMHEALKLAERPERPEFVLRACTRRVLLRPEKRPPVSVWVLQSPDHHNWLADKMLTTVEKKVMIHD

As for `Cc1ccccc1-c1n[nH]c2c1CCNCC2` [Example 7, 3-(o-tolyl)-1,4,5,6,7,8-hexahydropyrazolo[3,4-d]azepine], the inhibition at 10 µM was found to be 68.5% and the Ki was found to be 881 nM. The corresponding values for `Cc1ccc(-c2n[nH]c3c2CCNCC3)cc1` [Example 9, 3-(p-tolyl)-1,4,5,6,7,8-hexahydropyrazolo[3,4-d]azepine] are 94.2% and 47 nM. With `Clc1ccc(-c2noc3c2CCNCC3)cc1` [Example 16, 3-(4-chlorophenyl)-5,6,7,8-tetrahydro-4H-isoxazolo[4,5-d]azepine], the inhibition at 10 µM is 93.8% and the inhibitory constant (Ki) was 70 nM. The corresponding values for `Cc1ccc(-c2noc3c2CCNCC3)cc1` [Example 19, 3-(p-tolyl)-5,6,7,8-tetrahydro-4H-isoxazolo[4,5-d]azepine] are 96.3% and 16 nM. `Cc1ccccc1-c1noc2c1CCNCC2` [Example 17, 3-(o-tolyl)-5,6,7,8-tetrahydro-4H-isoxazolo[4,5-d]azepine]: the inhibition at 10 µM worked out at 41.8%. For `Clc1cccc(-c2noc3c2CCNCC3)c1` [Example 15, 3-(3-chlorophenyl)-5,6,7,8-tetrahydro-4H-isoxazolo[4,5-d]azepine], the inhibition at 10 µM stood at 78.7% and the Ki was 369 nM. With `c1ccc(-c2noc3c2CCNCC3)cc1` [Example 10, 3-phenyl-5,6,7,8-tetrahydro-4H-isoxazolo[4,5-d]azepine], the inhibition at 10 µM was determined as 84.3% and the Ki was found to be 319 nM. Consider `Clc1ccccc1-c1noc2c1CCNCC2` [Example 14, 3-(2-chlorophenyl)-5,6,7,8-tetrahydro-4H-isoxazolo[4,5-d]azepine], for which the inhibition at 10 µM worked out at 84.5% and the inhibition constant Ki came out at 425 nM. The corresponding values for `Fc1ccc(-c2noc3c2CCNCC3)cc1` [Example 13, 3-(4-fluorophenyl)-5,6,7,8-tetrahydro-4H-isoxazolo[4,5-d]azepine] are 94.6% and 53 nM.

In the case of `Fc1ccccc1-c1noc2c1CCNCC2` [Example 11, 3-(2-fluorophenyl)-5,6,7,8-tetrahydro-4H-isoxazolo[4,5-d]azepine], the inhibition at 10 µM amounted to 77.9% and the Ki turned out to be 366 nM. The corresponding values for `Fc1cccc(-c2n[nH]c3c2CCNCC3)c1` [Example 3, 3-(3-fluorophenyl)-1,4,5,6,7,8-hexahydropyrazolo[3,4-d]azepine] are 72.9% and 1240 nM.

Turning to `Cc1cccc(-c2n[nH]c3c2CCNCC3)c1` [Example 8, 3-(m-tolyl)-1,4,5,6,7,8-hexahydropyrazolo[3,4-d]azepine], the inhibition at 10 µM worked out at 63% and the Ki turned out to be 1440 nM. In the same order, the values of `Clc1ccccc1-c1n[nH]c2c1CCNCC2` [Example 4, 3-(2-chlorophenyl)-1,4,5,6,7,8-hexahydropyrazolo[3,4-d]azepine] are 88.7% and 386 nM. `Fc1cccc(-c2noc3c2CCNCC3)c1` [Example 12, 3-(3-fluorophenyl)-5,6,7,8-tetrahydro-4H-isoxazolo[4,5-d]azepine]: the inhibition at 10 µM amounted to 57.5% and the Ki came to 1410 nM. In the same order, the values of `Cc1cccc(-c2noc3c2CCNCC3)c1` [Example 18, 3-(m-tolyl)-5,6,7,8-tetrahydro-4H-isoxazolo[4,5-d]azepine] are 76.3% and 506 nM. The corresponding values for `Clc1ccc(-c2n[nH]c3c2CCNCC3)cc1` [Example 6, 3-(4-chlorophenyl)-1,4,5,6,7,8-hexahydropyrazolo[3,4-d]azepine] are 96.4% and 30 nM. The corresponding values for `COc1ccccc1-c1noc2c1CCNCC2` [Example 20, 3-(2-methoxyphenyl)-5,6,7,8-tetrahydro-4H-isoxazolo[4,5-d]azepine] are 87.9% and 303 nM. In the case of `c1ccc(-c2n[nH]c3c2CCNCC3)cc1` [Example 1, 3-phenyl-1,4,5,6,7,8-hexahydropyrazolo[3,4-d]azepine], the inhibition at 10 µM came out at 84.2% and the inhibitory constant (Ki) was 322 nM.

Take `Fc1ccccc1-c1n[nH]c2c1CCNCC2` [Example 2, 3-(2-fluorophenyl)-1,4,5,6,7,8-hexahydropyrazolo[3,4-d]azepine]: the inhibition at 10 µM is 78.9% and the inhibition constant (Ki) was 714 nM. As to `Clc1cccc(-c2n[nH]c3c2CCNCC3)c1` [Example 5, 3-(3-chlorophenyl)-1,4,5,6,7,8-hexahydropyrazolo[3,4-d]azepine], the inhibition at 10 µM worked out at 79.2% and the Ki was found to be 883 nM.
